“And” between values parts separate entries of the source, which are not always exact repeats. Equal entries are not always repeated.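 Cultured in 96-well plates, cells were exposed to test compound for 48 hours across five concentrations. At the GI50, growth is halved. TGI denotes the concentration required for complete inhibition of growth.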
Columns and labels:
Assay in all cases: NCI tumour cell line growth inhibition, 48 h
[1] = system: 786-0 renal
[2] = system: A498 renal
[3] = system: A549 NSCLC
[4] = system: ACHN renal
[5] = system: BT-549 breast
[6] = system: CAKI-1 renal
[7] = system: CCRF-CEM leukemia
[8] = system: COLO 205 colon
[9] = system: DLD-1 colon
[10] = system: DMS 114 small cell lung
[11] = system: DMS 273 small cell lung
[12] = system: DU-145 prostate
[13] = system: EKVX NSCLC
[14] = system: HCC-2998 colon
[15] = system: HCT-116 colon
[16] = system: HCT-15 colon
[17] = system: HL-60(TB) leukemia
[18] = system: HOP-18 NSCLC
[19] = system: HOP-62 NSCLC
[20] = system: HOP-92 NSCLC
[21] = system: HS 578T breast
[22] = system: HT29 colon
[23] = system: IGROV1 ovarian
[24] = system: K-562 leukemia
[25] = system: KM12 colon
[26] = system: KM20L2 colon
[27] = system: LOX IMVI melanoma
[28] = system: LXFL 529 NSCLC
[29] = system: M14 melanoma
[30] = system: M19-MEL melanoma
[31] = system: MCF7 breast
[32] = system: MDA-MB-231 breast
[33] = system: MDA-MB-435
[34] = system: MDA-N
[35] = system: MOLT-4 leukemia
[36] = system: NCI-H226 lung
[37] = system: NCI-H23 lung
[38] = system: NCI-H460 lung
[39] = system: NCI-H522 lung
[40] = system: NCI/ADR-RES ovarian
[41] = system: OVCAR-3 ovarian
[42] = system: OVCAR-4 ovarian
[43] = system: OVCAR-5 ovarian
[44] = system: OVCAR-8 ovarian
[45] = system: P388 leukemia
[46] = system: P388/ADR leukemia
[47] = system: PC-3 prostate
[48] = system: RPMI-8226 leukemia
[49] = system: RXF 393 renal
[50] = system: SF-268 CNS
[51] = system: SF-295 CNS
[52] = system: SF-539 CNS
[53] = system: SK-MEL-2 melanoma
[54] = system: SK-MEL-28 melanoma
[55] = system: SK-MEL-5 melanoma
[56] = system: SK-OV-3 ovarian
[57] = system: SN12C renal
[58] = system: SN12K1 renal
[59] = system: SNB-19 CNS
[60] = system: SNB-75 CNS
[61] = system: SNB-78 CNS
[62] = system: SR leukemia
[63] = system: SW-620 colon
[64] = system: T-47D breast
[65] = system: TK-10 renal
[66] = system: U251 CNS
[67] = system: UACC-257 melanoma
[68] = system: UACC-62 melanoma
[69] = system: UO-31 renal
[70] = system: XF 498 CNS

## COc1cccc2c1C(=O)c1c(O)c3c(c(O)c1C2=O)C[C@@](O)(C(C)=O)C[C@@H]3OC1CC(N(C)C)C(O)C(C)O1 (stereo not given in full)
[1]
  TGI: 1360 nM
[2]
  GI50: 139 nM and 46.6 nM
[3]
  GI50: 81.6 nM and 35 nM
  TGI: 423 nM and 1650 nM
[4]
  GI50: 9.02 nM
[5]
  TGI: 5.62 nM
[6]
  TGI: 560 nM and 593 nM
[7]
  GI50: 29.1 nM
[8]
  GI50: 13.3 nM
[9]
  TGI: 3340 nM and 705 nM
[10]
  GI50: < 19.9 nM
  TGI: 302 nM and 274 nM
[11]
  GI50: 5.4 nM
  TGI: 204 nM and 180 nM
[12]
  TGI: 7.39 nM
[13]
  GI50: 126 nM and 58.8 nM
[14]
  TGI: 270 nM and 205 nM
[15]
  GI50: 2.25 nM
[16]
  GI50: 21.1 nM
[17]
  GI50: 40.2 nM
[18]
  TGI: 585 nM and 2170 nM
[19]
  GI50: 117 nM and < 16.7 nM
[20]
  GI50: 4.54 nM and < 14.7 nM
[21]
  TGI: 1.1 nM
[22]
  GI50: 5.16 nM
  TGI: 5.91 µM
[23]
  GI50: 21.8 nM and < 11.1 nM
[24]
  GI50: 4.56 nM
  TGI: 1090 nM and 182 nM
[25]
  GI50: 17.1 nM and 13.1 nM
[26]
  GI50: < 13.3 nM
  TGI: 307 nM and 367 nM
[27]
  GI50: 3.87 nM
[28]
  TGI: 1000 nM
[29]
  GI50: 43.7 nM
[30]
  TGI: 292 nM and 39 nM
[31]
  TGI: 405 nM
[32]
  TGI: 5 nM
[33]
  TGI: 2.34 nM
[34]
  TGI: 1.54 nM
[35]
  GI50: 4.95 nM
[36]
  GI50: 1.08 nM
[37]
  GI50: 39.4 nM and < 14.2 nM
[38]
  GI50: 7.86 nM
[39]
  GI50: 36 nM and 21 nM
[40]
  TGI: 1870 nM
[41]
  GI50: 108 nM and 155 nM
[42]
  GI50: < 16.4 nM
  TGI: 520 nM and 977 nM
[43]
  GI50: 26.6 nM and 14.7 nM
[44]
  GI50: 7.19 nM
  TGI: 2.8 µM and 3.75 µM
[45]
  TGI: 13.9 nM
[46]
  TGI: 135 nM
[47]
  TGI: 1.44 nM
[48]
  GI50: < 15.9 nM
  TGI: 230 nM and 1920 nM
[49]
  GI50: 48.7 nM and < 15.1 nM
[50]
  GI50: < 19.1 nM
[51]
  GI50: 18.8 nM and 25.4 nM
[52]
  GI50: 17.3 nM
[53]
  GI50: < 11.3 nM
  TGI: 308 nM and 91.5 nM
[54]
  GI50: 47.5 nM
[55]
  GI50: 36.8 nM and < 10.9 nM
[56]
  GI50: 144 nM and 115 nM
  TGI: 3.17 µM and 3.85 µM
[57]
  GI50: 16.4 nM
  TGI: 2150 nM and 1010 nM
[58]
  TGI: 85.1 nM
[59]
  GI50: 39.6 nM
[60]
  GI50: 138 nM and 21.9 nM
[61]
  GI50: 30.2 nM and 16.9 nM
  TGI: 1040 nM and 467 nM
[62]
  GI50: 2.37 nM
[63]
  GI50: 4.84 nM
  TGI: 622 nM and 1560 nM
[64]
  TGI: 3.29 nM
[65]
  GI50: 122 nM
  TGI: 1340 nM
[66]
  GI50: 45.1 nM
[67]
  GI50: 43.5 nM and < 18.5 nM
[68]
  GI50: 37.2 nM and < 11.5 nM
[69]
  GI50: 56.1 nM
[70]
  TGI: 403 nM and 87.7 nM

From PubChem BioAssay (NCI)
